Test results: the OligoGym collection
These antisense oligonucleotides have a phosphorothioate backbone; sugars and methylation of C are not fully specified.

Assays:
Conditions in all cases: ASO
ETS2 = biological target: ETS2
GNAI1 = biological target: GNAI1
MAP2K7 = biological target: MAP2K7
AKT1 = biological target: AKT1
Note: test concentration or dose not given here.

Work on CCGACGTCTTGTGGATGA yielded a remaining target (mRNA or protein) (fraction of control) (ETS2) of 0.45.
With TCACCAAAGTCTATCTTC the remaining target (mRNA or protein) (fraction of control) (GNAI1) was ≥ 1.
TGATCCAAAGGCAGGTGT showed a remaining target (mRNA or protein) (fraction of control) (GNAI1) of 0.27.
TCGTAATAGTAGCGTAAG was tested, and the remaining target (mRNA or protein) (fraction of control) (ETS2) was 0.85.
AGACAAACACCTCGTGCCGA was tested, and the remaining target (mRNA or protein) (fraction of control) (MAP2K7) was 0.88.
AGAGCTTGATCTGGCCCCGC was tested, and the remaining target (mRNA or protein) (fraction of control) (MAP2K7) was 0.84.
For AACCCGTTGCACATCCAG, the remaining target (mRNA or protein) (fraction of control) (ETS2) was ≥ 1.
TGGCTTATTGAGGCAGAG was tested, and the remaining target (mRNA or protein) (fraction of control) (ETS2) was 0.94.
For TCATAGTCCGGCTTGGTGGG, the remaining target (mRNA or protein) (fraction of control) (MAP2K7) was ≥ 1.
For AGGCGGCACAGCCGGCGCTC, the remaining target (mRNA or protein) (fraction of control) (MAP2K7) was 0.95.
For AATAGTCTGTGTGTGTCC, the remaining target (mRNA or protein) (fraction of control) (ETS2) was ≥ 1.
In the case of TTTGAAAGTAAAATGGGT, the remaining target (mRNA or protein) (fraction of control) (GNAI1) is reported as ≥ 1.
Sequence GACGCCGCCATCTTCCCCGC has a remaining target (mRNA or protein) (fraction of control) (MAP2K7) of 0.7.
In the case of TAGCCCGTCTGCTTCATGAT, the remaining target (mRNA or protein) (fraction of control) (MAP2K7) is reported as 0.76.
TCACCCTAAAATCCTAAG was tested, and the remaining target (mRNA or protein) (fraction of control) (GNAI1) was ≥ 1.
TTCTTTGGAATGCCCAGG gave a remaining target (mRNA or protein) (fraction of control) (ETS2) of 0.93.
GAGTCCACCAGGCGGCCGCT gave a remaining target (mRNA or protein) (fraction of control) (MAP2K7) of 0.66.
GCACCACATCCAGGTCCATG gave a remaining target (mRNA or protein) (fraction of control) (MAP2K7) of 0.58.
In the case of AAACTAAAGTCATAAATA, the remaining target (mRNA or protein) (fraction of control) (GNAI1) is reported as ≥ 1.
AGCTGTCCGCACCGTTCT was tested, and the remaining target (mRNA or protein) (fraction of control) (ETS2) was ≥ 1.
Sequence AGGACGCCGCCATCTTCCCC has a remaining target (mRNA or protein) (fraction of control) (MAP2K7) of 0.7.
Work on CCGCCATCTTCCCCGCCGCC yielded a remaining target (mRNA or protein) (fraction of control) (MAP2K7) of 0.9.
For CATGAACATAAATAAAGC, the remaining target (mRNA or protein) (fraction of control) (GNAI1) was ≥ 1.
Sequence AACCAGGTCGTAGTCACT has a remaining target (mRNA or protein) (fraction of control) (GNAI1) of 0.45.
In the case of CCGGGCTGAGTCACCAAA, the remaining target (mRNA or protein) (fraction of control) (GNAI1) is reported as 0.31.
For GCCTCTCCATCCCTCCAA, the remaining target (mRNA or protein) (fraction of control) (AKT1) was 0.24.
With CGTCCCACGGACTGCCAG the remaining target (mRNA or protein) (fraction of control) (ETS2) was ≥ 1.
Work on CTCCTCTTCTGAATAACC yielded a remaining target (mRNA or protein) (fraction of control) (GNAI1) of 0.79.
CGCGCACCGCCCGGCCGCCC showed a remaining target (mRNA or protein) (fraction of control) (MAP2K7) of 0.46.
TTCAACCTCCCCATAGCC gave a remaining target (mRNA or protein) (fraction of control) (GNAI1) of 0.81.
TCAAAATACCTGGTGTCA gave a remaining target (mRNA or protein) (fraction of control) (AKT1) of 0.49.
CAATTCCTGTAGTTTTCA showed a remaining target (mRNA or protein) (fraction of control) (GNAI1) of 0.8.
Sequence GGCAGCCCCTTTGACTTC has a remaining target (mRNA or protein) (fraction of control) (AKT1) of 0.47.
GGAGGGCTTGACGTCGCGGT was tested, and the remaining target (mRNA or protein) (fraction of control) (MAP2K7) was 0.96.
TAATAGTCTGTCATTCAG was tested, and the remaining target (mRNA or protein) (fraction of control) (GNAI1) was 0.95.
AGTCTATCTTCAACCTCC was tested, and the remaining target (mRNA or protein) (fraction of control) (GNAI1) was 0.92.
ACTCAGGTCTTCGCCATGAC was tested, and the remaining target (mRNA or protein) (fraction of control) (MAP2K7) was 0.76.
GGAGCTGAGCCGAGACTT was tested, and the remaining target (mRNA or protein) (fraction of control) (ETS2) was 0.51.
TTATGTTATTTCCAAAGC gave a remaining target (mRNA or protein) (fraction of control) (GNAI1) of 0.87.
CCACTATCTTTCCACAAT showed a remaining target (mRNA or protein) (fraction of control) (GNAI1) of 0.84.
For GCGGCTGGCTGACAGAGT, the remaining target (mRNA or protein) (fraction of control) (AKT1) was 0.39.
GGACGGCCGAGTGGAGGG gave a remaining target (mRNA or protein) (fraction of control) (ETS2) of 0.81.
Work on TGCCAGCTCCAGAAAGCG yielded a remaining target (mRNA or protein) (fraction of control) (ETS2) of 0.84.
Sequence ACTGTCCTGTTGCCAGCTCC has a remaining target (mRNA or protein) (fraction of control) (MAP2K7) of 0.58.
GCCACGATGACTTCCTTC gave a remaining target (mRNA or protein) (fraction of control) (AKT1) of 0.4.
With TTTCCTCTTTCCCCACCG the remaining target (mRNA or protein) (fraction of control) (ETS2) was ≥ 1.
AGTCTGGATGGCGGTTGT gave a remaining target (mRNA or protein) (fraction of control) (AKT1) of 0.51.
Work on ATAAAGCCTTCTTCAGCA yielded a remaining target (mRNA or protein) (fraction of control) (GNAI1) of 0.78.
With GTTGAGTCGGGATGTAAT the remaining target (mRNA or protein) (fraction of control) (GNAI1) was ≥ 1.
With GATAGTTTTCTTCCCTAC the remaining target (mRNA or protein) (fraction of control) (AKT1) was ≥ 1.
Work on CTTTTACCAGATTCACCA yielded a remaining target (mRNA or protein) (fraction of control) (GNAI1) of 0.96.
For GGTAGTACAGCGCCTTCACA, the remaining target (mRNA or protein) (fraction of control) (MAP2K7) was 0.82.
With CAAGTTGCTGCCTGGGAA the remaining target (mRNA or protein) (fraction of control) (ETS2) was 0.39.
In the case of GGCTTGAAGGGTGGGCTG, the remaining target (mRNA or protein) (fraction of control) (AKT1) is reported as 0.59.
For TAAGGCTTGACTCATCAC, the remaining target (mRNA or protein) (fraction of control) (ETS2) was ≥ 1.
CCCCGAGAAGCCCATGTGTC was tested, and the remaining target (mRNA or protein) (fraction of control) (MAP2K7) was 0.69.
Sequence GAGGCAGCCTGGTCAAGA has a remaining target (mRNA or protein) (fraction of control) (ETS2) of 0.61.
For GCCGTTAGTCCGCGGTGACT, the remaining target (mRNA or protein) (fraction of control) (MAP2K7) was 0.72.
TAGATAAGGGCTGTAATG showed a remaining target (mRNA or protein) (fraction of control) (GNAI1) of 0.87.
ACTGCTTTGTATTGTTTA gave a remaining target (mRNA or protein) (fraction of control) (GNAI1) of 0.94.
CCCAGAGAGATGACAGAT was tested, and the remaining target (mRNA or protein) (fraction of control) (AKT1) was 0.54.
Work on GCCGTGAACTCCTCATCA yielded a remaining target (mRNA or protein) (fraction of control) (AKT1) of 0.44.
AAAATACTAAAGTTGAAT showed a remaining target (mRNA or protein) (fraction of control) (AKT1) of 0.75.
Work on CACAGTTGGCGGAGTCAT yielded a remaining target (mRNA or protein) (fraction of control) (ETS2) of 0.45.
In the case of CAGGGAGGACGCCGCCATCT, the remaining target (mRNA or protein) (fraction of control) (MAP2K7) is reported as ≥ 1.
CAAAGCCATCACCCTAAA was tested, and the remaining target (mRNA or protein) (fraction of control) (GNAI1) was 0.43.
In the case of GGTTGGCCGCCGGCCAAAGC, the remaining target (mRNA or protein) (fraction of control) (MAP2K7) is reported as ≥ 1.
In the case of TTCCGGAAGCGCATCTTCCA, the remaining target (mRNA or protein) (fraction of control) (MAP2K7) is reported as 0.86.
AAAGTTGAATGTTGTAAA gave a remaining target (mRNA or protein) (fraction of control) (AKT1) of 0.9.
